Here are results for 23 molecules from patent US10238638B2, “Benzothiazole and benzothiophene compounds” (Bristol-Myers Squibb Company, priority 2015, dated 2019).

Structures are written as SMILES.

Chain of PAR4 (Q96RI0 18-385): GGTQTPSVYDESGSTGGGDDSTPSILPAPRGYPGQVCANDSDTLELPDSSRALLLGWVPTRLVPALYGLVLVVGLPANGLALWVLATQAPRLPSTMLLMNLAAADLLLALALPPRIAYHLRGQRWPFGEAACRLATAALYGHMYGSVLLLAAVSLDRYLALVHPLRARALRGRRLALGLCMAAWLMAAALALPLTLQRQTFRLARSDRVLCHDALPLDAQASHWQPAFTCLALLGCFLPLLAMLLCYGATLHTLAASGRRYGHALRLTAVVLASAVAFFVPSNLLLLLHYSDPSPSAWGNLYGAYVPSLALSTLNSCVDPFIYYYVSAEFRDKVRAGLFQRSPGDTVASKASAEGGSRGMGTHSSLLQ

This assay has as its target PAR4 (Homo sapiens (Human), UniProt Q96RI0). Description: FLIPR assay in PAR4-expressing HEK293 cells (calcium mobilization). The assay is classed as cell-based. Conditions: H-Ala-Phe(4-F)-Pro-Gly-Trp-Leu-Val-Lys-Asn-Gly-NH2-induced calcium mobilization, PAR4 antagonist activity. From the text: The FLIPR assay is an exemplary in vitro assay for measuring the activity of the PAR4 antagonists of the present invention. In this assay, intracellular calcium mobilization is induced in PAR4 expressing cells by a PAR4 agonist and calcium mobilization is monitored.
HEK293 cells stably expressing PAR4 were generated by a standard method of transfection of human PAR4 (F2R23) cDNA expression vector and selected based on PAR4 protein expression or mRNA expression. […] Therefore, the same cells were also used to determine selectivity against PAR1 and agonist activity for both receptors.
FLIPR-based calcium mobilization assay in HEK293 cells was used to measure PAR4 antagonism, agonism, and selectivity against PAR1. […] Counter screens for agonist activity and PAR1 antagonist activity were also performed. Briefly, PAR1/PAR4-expressing HEK293 cells were grown in DMEM (Life Technology, Grand Island, N.Y.) containing 10% heat-inactivated FBS, 1% Penicillin-Streptomycin, 10 μg/mL blasticidin, and 100 μg/mL Zeocin at 37° C. with 5% CO2. Cells were plated overnight prior to the experiment in a black 384-well Purecoat Amine clear bottom plate (Becton Dickinson Biosciences, San Jose, Calif.) at 10,000 cells/well in 30 μL growth medium and incubated in a humidified chamber at 37° C. with 5% CO2 overnight. Prior to compound addition, the cell medium was replaced with 40 μL of 1× calcium and magnesium-containing Hank's Balanced Saline Solution (HBSS) (with 20 mM HEPES) and 1:1000 diluted fluorescent calcium indicator (Codex Biosolutions, Gaithersburg, Md.). After a 30 minute incubation period at 37° C. and a further 30 minute incubation and equilibration period at room temperature, 20 μL test compound (diluted in 1×HBSS buffer) was added at various concentrations at 0.17% dimethyl sulfoxide (DMSO) final concentration. Changes in fluorescence intensity were measured using a Functional Drug Screening System (FDSS, Hamamatsu, Japan) to determine agonist activities. The cells were then incubated for 30 minutes at room temperature followed by addition of 20 μL of agonist peptide for antagonist activity measurement. […] Compound potency was derived from 11-point concentration-response curves.
In general terms: Calcium assays in cells follow changes in intracellular calcium, usually with a dye or a luminescent sensor.
Take `COc1cc(OCc2csc(-c3ccc(C(=O)OC(C)(C)C)cc3)n2)c2sc(-c3cn4nc(C)sc4n3)nc2c1` [Example 1, tert-Butyl 4-(4-(((5-methoxy-2-(2-methylimidazo[2,1-b][1,3,4]thiadiazol-6-yl)benzo[d]thiazol-7-yl)oxy)methyl)thiazol-2-yl)benzoate]: the IC50 amounted to 2400 nM.
Under `COc1cc(OCc2csc(-c3ccc(C(=O)O)cc3)n2)c2sc(-c3cn4nc(C)sc4n3)nc2c1` [Example 2, 4-(4-(((5-Methoxy-2-(2-methylimidazo[2,1-b][1,3,4]thiadiazol-6-yl)benzo[d]thiazol-7-yl)oxy)methyl)thiazol-2-yl)benzoic acid] stands 45000 nM; under `COc1cc(OCc2csc(-c3ccc(C(=O)N(C)[C@H]4CCOC4)cc3)n2)c2sc(-c3cn4nc(C)sc4n3)nc2c1` [Example 3, (S)-4-(4-(((5-methoxy-2-(2-methylimidazo[2,1-b][1,3,4]thiadiazol-6-yl)benzo[d]thiazol-7-yl)oxy)methyl)thiazol-2-yl)-N-methyl-N-(tetrahydrofuran-3-yl)benzamide], 3600 nM; under `COc1cc(OCc2csc(-c3ccc(C(=O)N4CCC[C@H](O)C4)cc3)n2)c2sc(-c3cn4nc(C)sc4n3)nc2c1` [Example 4], 4200 nM.
For `COc1cc(OCc2csc(-c3ccc(C(=O)N(C)CC#N)cc3)n2)c2sc(-c3cn4nc(C)sc4n3)nc2c1` [Example 5, N—(Cyanomethyl)-4-(4-(((5-methoxy-2-(2-methylimidazo[2,1-b][1,3,4]thiadiazol-6-yl)benzo[d]thiazol-7-yl)oxy)methyl)thiazol-2-yl)-N-methylbenzamide], the half-maximal inhibitory concentration (IC50) was 1100 nM.
The figure for `COc1cc(OCc2csc(-c3ccc(C(=O)N(C)C)cc3)n2)c2sc(-c3cn4nc(C)sc4n3)nc2c1` [Example 6, 4-(4-(((5-Methoxy-2-(2-methylimidazo[2,1-b][1,3,4]thiadiazol-6-yl)benzo[d]thiazol-7-yl)oxy)methyl)thiazol-2-yl)-N,N-dimethylbenzamide] is 3800 nM; for `COc1cc(OCc2csc(-c3ccc(C(=O)N(CCO)C(C)(C)C)cc3)n2)c2sc(-c3cn4nc(C)sc4n3)nc2c1` [Example 7] it is 30000 nM; for `COc1cc(OCc2csc(-c3ccc(C(=O)N4CC[C@@H](CO)C4)cc3)n2)c2sc(-c3cn4nc(C)sc4n3)nc2c1` [Example 8] it is 1800 nM.
In the case of `COc1cc(OCc2csc(-c3ccc(C(=O)N4CCOC[C@H]4CO)cc3)n2)c2sc(-c3cn4nc(C)sc4n3)nc2c1` [Example 9, (R)-(3-(Hydroxymethyl)morpholino)(4-(4-(((5-methoxy-2-(2-methylimidazo[2,1-b][1,3,4]thiadiazol-6-yl)benzo[d]thiazol-7-yl)oxy)methyl)thiazol-2-yl)phenyl)methanone], the IC50 stood at 330 nM.
Turning to `COc1cc(OCc2csc(-c3ccc(C(=O)N(C)C4CCOCC4)cc3)n2)c2sc(-c3cn4nc(C)sc4n3)nc2c1` [Example 10, 4-(4-(((5-Methoxy-2-(2-methylimidazo[2,1-b][1,3,4]thiadiazol-6-yl)benzo[d]thiazol-7-yl)oxy)methyl)thiazol-2-yl)-N-methyl-N-(tetrahydro-2H-pyran-4-yl)benzamide], the IC50 stood at 980 nM.
As for `COc1cc(OCc2csc(-c3ccc(C(=O)N4CCOC[C@@H]4CO)cc3)n2)c2sc(-c3cn4nc(C)sc4n3)nc2c1` [Example 11, (S)-(3-(Hydroxymethyl)morpholino)(4-(4-(((5-methoxy-2-(2-methylimidazo[2,1-b][1,3,4]thiadiazol-6-yl)benzo[d]thiazol-7-yl)oxy)methyl)thiazol-2-yl)phenyl)methanone], the IC50 amounted to 1400 nM.
For the molecule `COc1cc(OCc2csc(-c3ccc(C(=O)O)cc3)n2)c2sc(-c3cn4nc(C(C)(F)F)sc4n3)nc2c1` [Example 14, 4-(4-(((2-(2-(1,1-Difluoroethyl)imidazo[2,1-b][1,3,4]thiadiazol-6-yl)-5-methoxybenzo[d]thiazol-7-yl)oxy)methyl)thiazol-2-yl)benzoic acid], the IC50 stood at 87000 nM.
The figure for `COc1cc(OCc2csc(-c3ccc(C(=O)N(C)[C@H]4CCOC4)cc3)n2)c2sc(-c3cn4nc(C(C)(F)F)sc4n3)nc2c1` [Example 15, (S)-4-(4-(((2-(2-(1,1-Difluoroethyl)imidazo[2,1-b][1,3,4]thiadiazol-6-yl)-5-methoxybenzo[d]thiazol-7-yl)oxy)methyl)thiazol-2-yl)-N-methyl-N-(tetrahydrofuran-3-yl)benzamide] is 3700 nM; for `COc1cc(OCc2csc(-c3ccc(C(=O)N4CCC[C@H](O)C4)cc3)n2)c2sc(-c3cn4nc(C(C)(F)F)sc4n3)nc2c1` [Example 16, (S)-(4-(4-(((2-(2-(1,1-Difluoroethyl)imidazo[2,1-b][1,3,4]thiadiazol-6-yl)-5-methoxybenzo[d]thiazol-7-yl)oxy)methyl)thiazol-2-yl)phenyl)(3-hydroxypiperidin-1-yl)methanone] it is 15000 nM; for `COc1cc(OCc2csc(-c3ccc(C(=O)N(C)CC#N)cc3)n2)c2sc(-c3cn4nc(C(C)(F)F)sc4n3)nc2c1` [Example 17, N—(Cyanomethyl)-4-(4-(((2-(2-(1,1-difluoroethyl)imidazo[2,1-b][1,3,4]thiadiazol-6-yl)-5-methoxybenzo[d]thiazol-7-yl)oxy)methyl)thiazol-2-yl)-N-methylbenzamide] it is 2600 nM.
Turning to `COc1cc(OCc2csc(-c3ccc(C(=O)N(C)C)cc3)n2)c2sc(-c3cn4nc(C(C)(F)F)sc4n3)nc2c1` [Example 18, 4-(4-(((2-(2-(1,1-difluoroethyl)imidazo[2,1-b][1,3,4]thiadiazol-6-yl)-5-methoxybenzo[d]thiazol-7-yl)oxy)methyl)thiazol-2-yl)-N,N-dimethylbenzamide], the IC50 was 5100 nM.
With `COc1cc(OCc2csc(-c3ccc(C(=O)N(CCO)C(C)(C)C)cc3)n2)c2sc(-c3cn4nc(C(C)(F)F)sc4n3)nc2c1` [Example 19, N-(tert-Butyl)-4-(4-(((2-(2-(1,1-difluoroethyl)imidazo[2,1-b][1,3,4]thiadiazol-6-yl)-5-methoxybenzo[d]thiazol-7-yl)oxy)methyl)thiazol-2-yl)-N-(2-hydroxyethyl)benzamide], the IC50 was found to be 81000 nM.
Regarding `COc1cc(OCc2csc(-c3ccc(C(=O)N4CC[C@@H](CO)C4)cc3)n2)c2sc(-c3cn4nc(C(C)(F)F)sc4n3)nc2c1` [Example 20, (R)-(4-(4-(((2-(2-(1,1-Difluoroethyl)imidazo[2,1-b][1,3,4]thiadiazol-6-yl)-5-methoxybenzo[d]thiazol-7-yl)oxy)methyl)thiazol-2-yl)phenyl)(3-(hydroxymethyl)pyrrolidin-1-yl)methanone], the concentration for half-maximal inhibition (IC50) was determined as 1200 nM.
Under `COc1cc(OCc2csc(-c3ccc(C(=O)N4CCOC[C@H]4CO)cc3)n2)c2sc(-c3cn4nc(C(C)(F)F)sc4n3)nc2c1` [Example 21, (R)-(4-(4-(((2-(2-(1,1-Difluoroethyl)imidazo[2,1-b][1,3,4]thiadiazol-6-yl)-5-methoxybenzo[d]thiazol-7-yl)oxy)methyl)thiazol-2-yl)phenyl)(3-(hydroxymethyl)morpholino)methanone] stands 920 nM; under `COc1cc(OCc2csc(-c3ccc(C(=O)N(C)C4CCOCC4)cc3)n2)c2sc(-c3cn4nc(C(C)(F)F)sc4n3)nc2c1` [Example 22, 4-(4-(((2-(2-(1,1-Difluoroethyl)imidazo[2,1-b][1,3,4]thiadiazol-6-yl)-5-methoxybenzo[d]thiazol-7-yl)oxy)methyl)thiazol-2-yl)-N-methyl-N-(tetrahydro-2H-pyran-4-yl)benzamide], 760 nM; under `COc1cc(OCc2csc(-c3ccc(C(=O)N(C)[C@H]4CCOC4)cc3)n2)c2sc(-c3cn4nc(C5CC5)sc4n3)nc2c1` [Example 25, (S)-4-(4-(((2-(2-Cyclopropylimidazo[2,1-b][1,3,4]thiadiazol-6-yl)-5-methoxybenzo[d]thiazol-7-yl)oxy)methyl)thiazol-2-yl)-N-methyl-N-(tetrahydrofuran-3-yl)benzamide], 2600 nM.
Take `COc1cc(OCc2csc(-c3ccc(C(=O)N4CCC[C@H](O)C4)cc3)n2)c2sc(-c3cn4nc(C5CC5)sc4n3)nc2c1` [Example 26, (S)-(4-(4-(((2-(2-Cyclopropylimidazo[2,1-b][1,3,4]thiadiazol-6-yl)-5-methoxybenzo[d]thiazol-7-yl)oxy)methyl)thiazol-2-yl)phenyl)(3-hydroxypiperidin-1-yl)methanone]: the IC50 came to 9100 nM.
On to `COc1cc(OCc2csc(-c3ccc(C(=O)N(C)CC#N)cc3)n2)c2sc(-c3cn4nc(C5CC5)sc4n3)nc2c1` [Example 27, N-(Cyanomethyl)-4-(4-(((2-(2-cyclopropylimidazo[2,1-b][1,3,4]thiadiazol-6-yl)-5-methoxybenzo[d]thiazol-7-yl)oxy)methyl)thiazol-2-yl)-N-methylbenzamide], for which the IC50 was 1200 nM.

Usually IC50 stands for the concentration that gives 50% inhibition.
